Read-outs that look alike come from different tables or passages of the source.

We go through three molecules from publication PMC4890002, “The CebE/MsiK Transporter is a Doorway to the Cello-oligosaccharide-mediated Induction of Streptomyces scabies Pathogenicity” (Scientific Reports, 2016).

For data set [1], the target named is T1, CebE (SCAB57751, CebE^scab) (Streptomyces scabiei, UniProt C9Z451).
T1 construct: gene SCAB_57751; N-terminally 6His-tagged CebE without its first 44 codons (signal peptide and membrane-anchoring lipopeptide), produced in E. coli
T1 sequence (C9Z451 45-454): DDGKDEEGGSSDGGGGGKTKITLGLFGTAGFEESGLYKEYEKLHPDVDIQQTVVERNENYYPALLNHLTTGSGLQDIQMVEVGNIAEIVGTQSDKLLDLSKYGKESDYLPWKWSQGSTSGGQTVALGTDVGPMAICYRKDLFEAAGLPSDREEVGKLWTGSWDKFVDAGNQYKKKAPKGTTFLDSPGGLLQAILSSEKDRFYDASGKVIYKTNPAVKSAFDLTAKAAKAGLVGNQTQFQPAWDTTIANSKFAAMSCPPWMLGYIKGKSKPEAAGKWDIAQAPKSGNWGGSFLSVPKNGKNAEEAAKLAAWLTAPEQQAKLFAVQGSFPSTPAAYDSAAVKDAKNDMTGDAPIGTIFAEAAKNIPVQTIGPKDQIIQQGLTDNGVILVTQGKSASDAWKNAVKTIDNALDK
Kind of data set: intrinsic tryptophan fluorescence titration of purified protein. In kind it is binding.

A further data set has as its target T2, CebR (SCAB57761) (Streptomyces scabiei, UniProt C9Z452).
T2 construct: gene SCAB_57761; CebR-His6 (pure)
Kind of data set: EMSA: loss of DNA binding of pure CebR-His6 preincubated with the sugar. The class given is biochemical. (In general: A gel shift assay detects complexes by their altered migration in electrophoresis.)

The next data set concerns the target CebR (UniProt C9Z452 1-352). Kind of data set: EMSA; CebR 0-480 nM; no oligosaccharide; EMSA as in earlier work (buffer, salt, pH not given); 15 pmol Cy5 probe and 150 pmol CebR-6His in Methods, legend gives 6 nM probe (panel D) and CebR 0-480 nM (panel C); 1% agarose gel run at room temperature. As to conditions: protein: recombinant; tags: His6 (printed as CebR-6His / CebR-His6); chain copies: 2; blunt.

Broadly, the Kd is the free concentration of one partner at which half of the binding sites on the other are occupied at equilibrium, for simple one-to-one binding. For `OC[C@H]1O[C@@H](O[C@H]2[C@H](O)[C@@H](O)[C@H](O[C@H]3[C@H](O)[C@@H](O)C(O)O[C@@H]3CO)O[C@@H]2CO)[C@H](O)[C@@H](O)[C@@H]1O` (some centres unmarked) [(Glc)3, cellotriose], the Kd in data set [1] (read-out: Kd) is 2 nM. Moreover, the “EMSA: loss of DNA binding of pure CebR-His6 preincubated with the sugar” value at CebR (SCAB57761) is “EMSAs demonstrating that cellobiose and cellotriose are able to inhibit the DNA-binding ability of CebR”.

In the case of `OC[C@H]1O[C@@H](O[C@H]2[C@H](O)[C@@H](O)C(O)O[C@@H]2CO)[C@H](O)[C@@H](O)[C@@H]1O` (some centres unmarked) [(Glc)2, cellobiose], in data set [1], binding was put at a Kd of 14 nM. On CebR (SCAB57761), the “EMSA: loss of DNA binding of pure CebR-His6 preincubated with the sugar” value was “EMSAs demonstrating that cellobiose and cellotriose are able to inhibit the DNA-binding ability of CebR”.

B1: cbsbglC probe (dsDNA)
DNA 1: CGACCACCAATGGGAGCGCTTCCATGCCTGAACC
DNA 2: GGTTCAGGCATGGAAGCGCTCCCATTGGTGGTCG
As to B1, the binding result with CebR is on record as “binds”.
